These results are taken from patent publication US9155795B2, “CXCR4 receptor compounds” (Anchor Therapeutics, Inc., priority 2010, dated 2015).

Where a SMILES comes first, the peptide text is derived from it. [ ]: non-standard residue; d: D form. The star is where a group is joined. Hexadecanesulfonyl = CCCCCCCCCCCCCCCCS(=O)(=O)*

The assay has as its target T1, CXCR4 (Homo sapiens, UniProt P61073).
T1 construct: CCRF-CEM cells, a human T-cell ALL line that endogenously expresses CXCR4; endogenous in cells; host or cells: CCRF-CEM (human T-cell acute lymphoblastic leukemia line)
As to the kind of experiment: Calcium flux assay, agonist mode, FLIPR (CCRF-CEM cells). The assay is classed as cell-based. The conditions noted are these: percent of maximum response compared with SDF-1α, read-out: % Intrinsic Activity. As to the method: The calcium flux assay was used to assess the test compounds' ability to activate the CXCR4 receptor in CCRF-CEM cells (human T lymphoblasts from acute lymphoblastic leukemia). […] After dye loading by incubating with Calcium-4 dye at 37° C. for 1 hour, cell plates were read at 37° C. using the Fluorescent Imaging Plate Reader (FLIPR). Receptor activation was assessed by measuring changes in fluorescent intensity after the addition of the test compounds or the reference agonist SDF-1α on the FLIPR.
In general terms: A change in cytosolic calcium serves as a functional read-out for many receptors and channels.

T1 sequence (P61073 whole entry): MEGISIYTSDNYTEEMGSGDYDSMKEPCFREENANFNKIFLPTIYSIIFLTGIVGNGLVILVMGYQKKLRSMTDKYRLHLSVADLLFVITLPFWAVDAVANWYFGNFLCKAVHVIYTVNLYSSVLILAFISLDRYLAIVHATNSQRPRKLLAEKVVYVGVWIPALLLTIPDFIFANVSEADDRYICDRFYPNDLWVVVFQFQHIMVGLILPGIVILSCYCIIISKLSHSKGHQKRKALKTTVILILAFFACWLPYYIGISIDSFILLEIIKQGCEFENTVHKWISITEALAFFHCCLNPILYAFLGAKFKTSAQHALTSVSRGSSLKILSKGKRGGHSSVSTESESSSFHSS

For the molecule `CCCCCCCCCCCCCCCCS(=O)(=O)NCC(=O)NCC(=O)N[C@@H](Cc1ccc(O)cc1)C(=O)N[C@@H](CCC(N)=O)C(=O)N[C@@H](CCCCN)C(=O)N[C@@H](CCCCN)C(=O)N[C@@H](CC(C)C)C(=O)N[C@@H](CCCNC(=N)N)C(=O)N1CCC[C@@H]1C(=O)N[C@@H](Cc1c[nH]cn1)C(=O)N[C@H](C(=O)N[C@@H](CC(=O)O)C(=O)N[C@@H](CCCCN)C(=O)N[C@@H](Cc1ccc(O)cc1)C(=O)N[C@@H](CCCNC(=N)N)C(=O)N[C@@H](CC(C)C)C(N)=O)[C@@H](C)O` [Compound 46, CH3(CH2)15SO2— GGYQKKLRpHTDKYRL-amide] (Hexadecanesulfonyl-GGYQKKLR[dP]HTDKYRL-NH2), the Emax stood at 107%.
